Measurements as given in PMC8414802, “Hair Cell Generation in Cochlear Culture Models Mediated by Novel γ-Secretase Inhibitors” (Frontiers in Cell and Developmental Biology, 2021).
pIC50: −log10 of the molar value. Where two headings read alike, the source gives them in different places.

Assays:
[1] = tested on: hair cell genes Atoh1, Pou4f3, Myo7a in OC explants; assay: Hair cell gene expression in organ of Corti explants (RT-PCR); type: cell-based, mouse; conditions: 4 days, vs DMSO
Experimental: OC explants were isolated from postnatal day 2 (P2) Wistar rats, P0-P2 mice (Lgr5-GFP or Atoh1-nGFP mice). Dissection of the cochlea under a stereomicroscope (Nikon SMZ800, Japan) allowed OC separation from stria vascularis and modiolus, and the sensory epithelium was plated with hair cells facing up on Cell-Tak (Corning, United States)-coated transwell-clear inserts (6-well format, 0.4 μm pore, Corning, United States). Dissection medium was exchanged for 1.5 ml full otic medium supplemented with 10% FBS (Invitrogen) and 0.01% Ampicillin (Sigma), added under the insert membrane, maintaining the OC under a thin film of medium during culture at 37°C. 5-ethyl-2′-deoxyuridine (EdU, 5 μM, Life Technologies) was added directly in the medium when indicated.
Concentrations of small molecule GSIs {LY411575, CPD3, CPD8, DAPT (N-[N-(3,5-Difluorophenacetyl)-L-alanyl]-S-phenylglycine t-butyl ester; Sigma)} were prepared in DMSO and are indicated in Figure Legends and Results. DMSO included as Control. Treatment groups were assigned randomly.
(§1) Cells or tissue were lysed using RLT Lysis Buffer (Qiagen) and high purity RNA was prepared on the MagNA Pure instrument using MagNA Pure 96 Cellular RNA LV Kit (Roche). Reagents from Thermo Fisher were used for cDNA synthesis by reverse transcription using random hexamers. Resulting cDNA was RNAse H treated and amplified by TaqMan GEX mastermix and PCR primers and probes for human ATOH1 (Hs00944192_s1) and TBP (Hs00427620_m1), mouse Tbp (Mm00446971_m1), Atoh1 (Mm00476035_s1), Hes5 (Mm00439311_g1), Pouf4s (Mm04213795_s1), and Myo7a (Mm01274015_m1) on the Applied Biosystems QuantStudio 7 Flex Real-Time PCR System. Normalized to Tbp, relative gene expression fold-change was quantified and compared between experimental and control conditions by ΔΔCt calculation.
FIGURE 2 GSI-mediated induction of hair cell gene expression and de novo generation of hair cells in the neonatal cochlear sensory epithelium. (A) Gene expression changes of Atoh1, Pou4f3, and Myo7a in response to Notch pathway inhibition by CPD3 (solid lines, triangles) and CPD8 (dashed lines, open square) in otic spheres. Gene expression is reported as fold-change relative to carrier control-treated (DMSO, 0.05%). (n = 9–12). […] (B) Gene expression analysis for the hair cell genes Atoh-1, Myo7a, and Pou4f3. DMSO control n = 13, CPD3 n = 12, LY411575 n = 9, DAPT n = 6 from 2–4 independent experiments. OC explants were cultured for 4 days with/without GSI prior to lysis and analysis. One-way ANOVA with Dunnett’s multiple comparison test, each condition compared to DMSO control. (*p < 0.05, **p < 0.005, ***p < 0.001). (C) Cell counts of Atoh1 positive HCs (OHC left, IHC right) in the mouse cochlear sensory epithelium in the mid-apex region after 7 days in culture with different γ-secretase inhibitors. One-way ANOVA Dunnett’s multiple comparison test, each condition compared to DMSO control. (*p < 0.05; n = 3–5 independent experiments). (D) Quantification of Pou4f3 positive HCs (OHC left, IHC right) in the cochlear sensory epithelium from P2 rats in the apical domain after 8 days in culture with different γ-secretase inhibitors. One-way ANOVA with Dunnett’s multiple comparison test, each condition compared to DMSO control (*p < 0.05, n = 3). Representative immunohistological images of the apical domain after 8 days incubation (inset). scale bar = 20 μm. (E) Quantification of Pou4f3 positive OHCs in the apex, middle and basal domain of organ of Corti explants from rats after 4 days of CPD3 treatment compared to DMSO (*p < 0.05, unpaired t-test) n = 4–6 explants from 2 independent experiments.

[2] = tested on: Notch-dependent expression of ATOH1 in LS174T cells; assay: ATOH1 expression induction in LS174T cell line by GSIs (RT-PCR); type: cell-based, human; conditions: GSI treatment 72 h, fold-change vs 0.05% DMSO, read-out: IC50 for ATOH1 expression upregulation
Experimental: The human colon cancer cell line LS174T (CL-188; ATCC) was cultured without antibiotics in 1% FBS/Eagle’s Minimum Essential Medium (MEM; Thermo Fisher) ([Asakura et al., 2018]). […]
as §1
Statistical analysis was performed with GraphPad Prism software (Prism9; GraphPad Software Inc., San Diego, CA, United States). For explant cultures, when the number of explants/replicates was not sufficient to test for Gaussian distribution normal distribution of the data was assumed based on previous experiments ([Perny et al., 2017]; [Erni et al., 2019]). Alternatively, the distribution of the datasets was tested by D’Agostino and Pearson normality test. Unpaired t-tests were used to compare parametric data sets of two groups. Welch’s correction was applied if variances were not equal. For non-parametric data, the Mann–Whitney test was adopted. One-way ANOVA was used to determine the difference in means among multiple groups and multiple comparison correction was tested. Graphs indicate the single data point, the mean values ± standard deviation. IC50s were calculated by non-linear regression of data normalized by percent change from controls to compare multiple experiments. Differences in IC50s from Best fit data were compared by Least Squares (F-test; Extra sum of squares; alpha = 0.05).
To measure the relative potency between different GSIs, a pharmacological assay was initially used to identify the dose ranges effective to induce ATOH1 expression. The cell line LS174T, a human colorectal adenocarcinoma, was used to evaluate Notch-dependent expression of ATOH1 ([Kazanjian et al., 2010]). Two compounds from Eli Lilly, designated LY3056480 (CPD3) and LY3056359 (CPD8) (Figures 1A,B) were compared with the commercially available GSIs LY411575 and DAPT. […] The intermediate potency of CPD3 and 8 was likely to be adequate to achieve levels above the IC50 after dilution into perilymph in the inner ear.

SMILES	Atoh1 expression ([1]; 1 μM) [fold]	Myo7a expression ([1]; 1 μM) [fold]	Pou4f3 expression ([1]; 1 μM) [fold]	pIC50 ([2]; Homo sapiens)	Atoh1 expression ([1]; 5 μM) [fold]	Myo7a expression ([1]; 5 μM) [fold]	Pou4f3 expression ([1]; 5 μM) [fold]	pIC50 [2]
COc1ccc2c(c1)N1CCC(C)(C)C1=CC(=O)[C@H]2NC(=O)[C@H](C)NC(=O)CCC(F)(F)F [CPD3]	3.7 ± 0.54	1.73 ± 0.33	2.04 ± 0.35	7.76				
C[C@H](NC(=O)[C@@H](O)c1cc(F)cc(F)c1)C(=O)N[C@@H]1C(=O)N(C)c2ccccc2-c2ccccc21 [LY411575]					4.34 ± 0.82	1.42 ± 0.31	1.46 ± 0.26	9.40
